This note sets out measurements from ChEMBL document CHEMBL1125655 (J Med Chem, 1991).

The series is described as follows: pKa value of the compound. The class given is physicochemical.

Consider `CN1CC[C@]23c4c5ccc(O)c4O[C@H]2[C@@H](O[C@@H]2O[C@H](C(=O)O)[C@@H](O)[C@H](O)[C@H]2O)C=C[C@H]3[C@H]1C5` (stereo in doubt; form 1) [MORPHINE GLUCURONIDE], for which the pKa came to 3.23.

As a reminder, the pKa is the negative logarithm of the acid dissociation constant. A lower pKa goes with a group that gives up its proton readily.
